# Counter-ions that a name gives are not always drawn.
# Experiments:
# [1] = system: second-degree burn wounds; assay: second-degree burn wound model, epidermal migration (epithelization) assessment; format: in vivo, Swine; conditions: for Percent of wounds completely epithelized / number of wounds healed (completely epithelized) over the number of wounds assessed: pig
# Procedure: The ability of selegiline and desmethylselegiline to assist in the healing of burns was tested using a second-degree burn wound model. In second-degree burns, the entire surface of the epidermis is destroyed. An epidermal covering is regenerated from the remaining epithelial and epidermal cells adjacent to the burns. This phase of the healing process is called epithelization.
# Swine were used for the experimental research animal because their skin has many morphological similarities to human skin. Seven young female specific pathogen free (SPF:Ken-O-Kaw Farms, Windsor, Ill.) pigs weighing 25-30 kg were kept in house for two weeks prior to initiating the experiment. These animals were fed a basal diet ad libitum and housed individually in facilities with controlled temperature (19-21° C.) and lights (12 h/12 h LD).
# Experimental animals were clipped with standard animal clippers on the day of the experiment. The skin on the back and both sides of the animal was prepared for wounding by washing with a non-antibiotic soap and sterile water. Each animal was anesthetized i.m. with ketamine-HCl (20 mg/kg), xylazine (2 mg/kg) and atropine (0.05 mg/kg), followed by mask inhalation of an isoflurane and oxygen combination. Five specifically designed cylindrical brass rods weighing 358 g each were heated in a boiling water bath to 100° C. A rod was removed from the water bath and wiped dry before being applied to the skin surface to prevent water droplets from creating a steam burn on the skin. The brass rod was held at a vertical position on the skin for six seconds with all pressure being supplied by gravity in order to make a burn 8.5 mm diameter×0.8 mm deep. Immediately after burning, the roof of the burn blister was removed with a sterile spatula. The burn wounds were made approximately 2 cm from each other.
# Approximately 90 burn wounds were made on the anterior two-thirds of the animal. The posterior third of the animal cannot be used because of anatomical differences in burn wound healing (a more rapid healing of burns has been observed at that position).
# A total of seven animals were used and a total of fifteen wounds per treatment group were analyzed on each of days 7-12 after wounding. Treatments were coded to maintain blind study compliance. The burn wounds were treated with 25 ug of test article (enough to cover each wound). Treatments were allowed to penetrate into the sites for at least a 20 minute time period. Each treatment was applied within 20 minutes of blister removal and treatment occurred once a day for the first five days.
# Beginning on day seven after wounding (day 0) and each day thereafter for four to six days, five burn wounds and the surrounding normal skin from each treatment area were excised using an electrokeratome. Any specimens that were not excised intact were discarded. The excised wounds and the surrounding normal skin were incubated in 0.5 M NaBr for 24 hours at 37° C. After incubation, the specimens were separated into epidermal and dermal sheets. The epidermis was examined macroscopically for defects in the area of the burn wounds. Epithelization was considered complete if no defect was present (healed). […] The epidermal sheet was placed on cardboard for a permanent record.
# The number of wounds healed (completely epithelized) were divided by the total number of wounds sampled per day and multiplied by 100.
# [2] = system: superoxide dysmutase, catalase and glutathione peroxidase; conditions: background statement (Jenner, et al.); cited from earlier work
# [3] = 10^-4M topical, day 7 after burning
# [4] = 10^-4M topical, day 8 after burning
# [5] = 10^-4M topical, day 9 after burning
# [6] = 10^-4M topical, day 10 after burning
# [7] = 10^-4M topical, day 11 after burning
# [8] = 10^-4M topical, day 12 after burning
# [9] = 10^-4M topical, day 13 after burning
# [10] = 10^-6M topical, day 7 after burning
# [11] = 10^-6M topical, day 8 after burning
# [12] = 10^-6M topical, day 9 after burning
# [13] = 10^-6M topical, day 10 after burning
# [14] = 10^-6M topical, day 11 after burning
# [15] = 10^-6M topical, day 12 after burning
# [16] = 10^-6M topical, day 13 after burning
# [17] = 10^-8M topical, day 7 after burning
# [18] = 10^-8M topical, day 8 after burning
# [19] = 10^-8M topical, day 9 after burning
# [20] = 10^-8M topical, day 10 after burning
# [21] = 10^-8M topical, day 11 after burning
# [22] = 10^-8M topical, day 12 after burning
# [23] = 10^-8M topical, day 13 after burning
compound,measurement,setting,value
"C#CCN(C)[C@H](C)Cc1ccccc1 [selegiline HCl, selegiline]",initiation of epithelization compared with other treatment groups,[1]; 10^-4 M and 10^-6 M,earlier time point than all other treatment groups
same,Percent of wounds completely epithelized,[1]; [3],(0%)
same,number of wounds healed (completely epithelized) over the number of wounds assessed,[1]; [3], 0/15
same,Percent of wounds completely epithelized,[1]; [4],(0%)
same,number of wounds healed (completely epithelized) over the number of wounds assessed,[1]; [4], 0/15
same,Percent of wounds completely epithelized,[1]; [5],(0%)
same,number of wounds healed (completely epithelized) over the number of wounds assessed,[1]; [5], 0/15
same,Percent of wounds completely epithelized,[1]; [6],20%
same,number of wounds healed (completely epithelized) over the number of wounds assessed,[1]; [6], 3/15
same,Percent of wounds completely epithelized,"[1]; 10^-4M topical, day 10 after burning, listed as A-1",(20%)
same,Percent of wounds completely epithelized,[1]; [7],33%
same,number of wounds healed (completely epithelized) over the number of wounds assessed,[1]; [7], 5/15
same,Percent of wounds completely epithelized,"[1]; 10^-4M topical, day 11 after burning, listed as A-1",(33%)
same,Percent of wounds completely epithelized,[1]; [8],33%
same,number of wounds healed (completely epithelized) over the number of wounds assessed,[1]; [8], 6/15
same,Percent of wounds completely epithelized,"[1]; 10^-4M topical, day 12 after burning, listed as A-1",(40%)
same,Percent of wounds completely epithelized,[1]; [9],33%
same,number of wounds healed (completely epithelized) over the number of wounds assessed,[1]; [9], 6/15
same,Percent of wounds completely epithelized,"[1]; 10^-4M topical, day 13 after burning, listed as A-1",(40%)
same,Percent of wounds completely epithelized,[1]; [10],(0%)
same,number of wounds healed (completely epithelized) over the number of wounds assessed,[1]; [10], 0/15
same,Percent of wounds completely epithelized,[1]; [11],(0%)
same,number of wounds healed (completely epithelized) over the number of wounds assessed,[1]; [11], 0/15
same,Percent of wounds completely epithelized,[1]; [12],(0%)
same,number of wounds healed (completely epithelized) over the number of wounds assessed,[1]; [12], 0/15
same,Percent of wounds completely epithelized,[1]; [13],20%
same,number of wounds healed (completely epithelized) over the number of wounds assessed,[1]; [13], 3/15
same,Percent of wounds completely epithelized,"[1]; 10^-6M topical, day 10 after burning, listed as A-2",(20%)
same,Percent of wounds completely epithelized,[1]; [14],33%
same,number of wounds healed (completely epithelized) over the number of wounds assessed,[1]; [14], 5/15
same,Percent of wounds completely epithelized,"[1]; 10^-6M topical, day 11 after burning, listed as A-2",(33%)
same,Percent of wounds completely epithelized,[1]; [15],40%
same,number of wounds healed (completely epithelized) over the number of wounds assessed,[1]; [15], 6/15
same,Percent of wounds completely epithelized,"[1]; 10^-6M topical, day 12 after burning, listed as A-2",(40%)
same,Percent of wounds completely epithelized,[1]; [16],40%
same,number of wounds healed (completely epithelized) over the number of wounds assessed,[1]; [16], 6/15
same,Percent of wounds completely epithelized,"[1]; 10^-6M topical, day 13 after burning, listed as A-2",(40%)
same,Percent of wounds completely epithelized,[1]; [17],(0%)
same,number of wounds healed (completely epithelized) over the number of wounds assessed,[1]; [17], 0/15
same,Percent of wounds completely epithelized,[1]; [18],(0%)
same,number of wounds healed (completely epithelized) over the number of wounds assessed,[1]; [18], 0/15
same,Percent of wounds completely epithelized,[1]; [19],(0%)
same,number of wounds healed (completely epithelized) over the number of wounds assessed,[1]; [19], 0/15
same,Percent of wounds completely epithelized,[1]; [20],(0%)
same,number of wounds healed (completely epithelized) over the number of wounds assessed,[1]; [20], 0/15
same,Percent of wounds completely epithelized,[1]; [21],None
same,number of wounds healed (completely epithelized) over the number of wounds assessed,[1]; [21], 0/15
same,Percent of wounds completely epithelized,"[1]; 10^-8M topical, day 11 after burning, listed as A-3",(0%)
same,Percent of wounds completely epithelized,[1]; [22],7%
same,number of wounds healed (completely epithelized) over the number of wounds assessed,[1]; [22], 1/15
same,Percent of wounds completely epithelized,"[1]; 10^-8M topical, day 12 after burning, listed as A-3",(7%)
same,Percent of wounds completely epithelized,[1]; [23],Thirty-eight
same,number of wounds healed (completely epithelized) over the number of wounds assessed,[1]; [23], 6/16
same,Percent of wounds completely epithelized,"[1]; 10^-8M topical, day 13 after burning, listed as A-3",(38%)
same,wound crust colour during absorption of applied agent,"[1]; first three days of treatment, normal again after 15 minutes",more pronounced
same,"activity of the endogenous anti-oxidants superoxide dysmutase, catalase and glutathione peroxidase",[2],increase the activity

# Source: US6461619B1 (Somerset Pharmaceuticals, Inc., priority 1998, dated 2002)
